Ends that are not written are not given here.
Legend:
[1] = system: panel of 20 different human cancer and 2 noncancerous cell lines; format: cell-based; conditions: 72 h
Description: First, we tested LP40 and LP1 for anticancer activity at the physiological pH. The peptides were screened against a panel of 20 different human cancer and 2 noncancerous cell lines using a CellTiter-Glo luminescent cell viability assay (Figure 6b). […] For few exceptional cell lines, the activity of LP40 was below 10 μM.
The CellTiter-Glo luminescent cell viability assay examining the impact of peptides on 22 different human cell lines was purchased from Reaction Biology Europe GmbH (Germany). Cells were cultured in different media (Table S1), seeded into a flat-bottom 96-well plate, and incubated at 37 °C. After overnight incubation, test compounds were added with 1% PBS/0.3% Tween 20 and the reference compound bortezomib was added with 0.1% DMSO. Negative controls were solvents alone, and positive control was 10 μM staurosporine. After 72 h of incubation at 37 °C, 5 or 10% CO2 (dependent on the medium), and 1 h equilibration at room temperature, well plates were treated with CellTiter-Glo reagent (Promega) for an hour and luminescence was measured using a luminometer.

[2] = system: HL-60, K-562, MCF-7 and HCT-116 cells; experiment: Viability by flow cytometry DiOC6/7AAD staining, effect of pH and media; format: cell-based, human; conditions: 10 μM, 1 h; RPMI, DMEM, PBS at pH 8, 7, 6 and ∼7.6
Description: To investigate the effect of pH and media on anticancer activity, we further tested the peptides against four cell lines, HL-60, K-562, and MCF-7, and the colon cancer cells HCT-116, cultured in three different media, namely, RPMI, DMEM, and PBS, each adjusted to three different pH values 8, 7, and 6, and additionally one case without pH adjustment (∼7.6) (Figure 6c). To avoid pH changes due to the natural buffering of the CO2-bicarbonate system used in cell culture, the peptides were tested at a concentration of 10 μM for only 1 h, as the cell lysis effect was already apparent within 30 min of exposure (Figure S9d).
Effects of pH and culture medium on the anticancer activity of peptides against acute myeloid leukemia HL-60, chronic myeloid leukemia K-562, breast adenocarcinoma MCF-7, and colon cancer cells HCT-116 cultured in three different media RPMI (#21875034, Gibco), DMEM (#LM-D1110/500, Biosera), and PBS adjusted to three different pH values 8, 7, and 6, and a medium without pH adjustment (∼7.6), were tested using flow cytometry DiOC6/7AAD (3,3-dihexyloxacarbocyanine iodide/7-amino-actinomycin D) staining assay, as described previously.[102] Media pH was adjusted twice, i.e., 1 day before the experiment and immediately before the experiment. Medium was supplemented with 10% heat-inactivated FBS, glutamine, sodium pyruvate, and antibiotics (100 U/mL penicillin and 100 μg/mL streptomycin). […] To determine cell viability, cells were incubated with DiOC6 (Thermo Fisher Scientific) and 7AAD (Thermo Fisher Scientific) for 15 min at 37 °C and cell viability was measured using a BriCyte E6 flow cytometer (Mindray); viable cells were considered as DiOC6-positive and 7AAD-negative.
The effect of pH on peptide activity in cancer cells was evaluated by the multiway ANOVA followed by Tukey post hoc test. Regarding the comparison of the effect of the medium, we analyzed the data from Figure 6c by comparing RPMI medium and DMEM of the same pH, and statistical significance was assessed using the multiway ANOVA followed by Tukey post hoc test. […]

MCF-7 cells = experiment: Immunoblotting of cleaved PARP and caspase-3; format: cell-based, human; conditions: 1 h treatment; media of different pH
Description: Furthermore, immunoblotting detection of cleaved PARP and caspase-3 markers confirmed the induction of apoptosis in MCF-7 cells by the peptides (Figure S10c).
MCF-7 cells were seeded at 2.5 × 10^5 cells/well in a 24-well plate 1 day before the experiment. Cells were treated with either peptides or PBS alone (negative control) and cultured in different media for 1 h. Cells were lysed using a buffer consisting of 1% SDS, 50 mM Tris–HCl (pH 6.8), and 10% glycerol with phosphatase and protease inhibitors. The protein concentration was determined by using the DC Protein Assay (Bio-Rad). Proteins were separated by SDS-PAGE and transferred to the PVDF membrane with a 0.45 μm pore size. The membranes were incubated with primary antibodies to detect cleaved PARP (no. 5625, 1:1000, Cell Signaling), total PARP (no. 9542, 1:2000, Cell Signaling), cleaved caspase-3 (no. 9664, 1:1000, Cell Signaling), or β-actin (no. 4970, 1:2000; Cell Signaling). Secondary HRP-linked antirabbit antibody (1:2000, Cell Signaling) was used to detect primary antibodies. Signal was detected using Clarity Western ECL Substrate (BioRad) and UVITEC Alliance (Uvitec).

E. coli AIC221 = conditions: E. coli / AIC221 / Prot. d; Prot. d
E. coli AIC222 (COL) = conditions: E. coli / AIC222 / COL / Prot. d; Prot. d
[3] = system: E. coli E1098 (GEN, AMI, IMI, MER); conditions: E. coli / E1098 / GEN, AMI, IMI, MER / Prot. c; Prot. c
[4] = system: K. pneumoniae 4371 (GEN, AMI, IMI, MER); conditions: K. pneumoniae / 4371 / GEN, AMI, IMI, MER / Prot. c; Prot. c
[5] = system: normal B and T lymphocytes, granulocytes, and monocytes in whole blood; experiment: Viability by flow cytometric staining in whole blood; format: cell-based, human; conditions: up to the highest tested concentration of 50 μM; 16 h
Description: Finally, we tested the effect of LP1 and LP40 on healthy primary cells in whole blood from a healthy donor (Figure S11).
The whole blood was seeded in a 96-well plate at 200 μL/well and treated with peptides for 16 h. The samples were then stained with anti-CD3 (FITC, Sony), anti-CD14 (APC-Cy7, Sony), and anti-CD19 (PE, Beckman Coulter) antibodies and incubated for 20 min at room temperature in the dark. The cells were then incubated with red blood cell lysis buffer for 10 min at room temperature, centrifuged, resuspended in PBS containing SYTOX Blue Dead Cell Stain (Thermo Fisher Scientific) and measured using a FACSVerse flow cytometer (BD Biosciences).

| Substance | IC50 [1] [µM] | Activity against cancer cells (cell viability) as a function of pH and medium [2] | Cleaved PARP and caspase-3 (apoptosis) (MCF-7 cells) | MIC (E. coli AIC221) [µM] | MIC (E. coli AIC222 (COL)) [µM] | MIC [3] [µM] | MIC [4] [µM] | Effect on healthy primary cells in whole blood [5] |
| --- | --- | --- | --- | --- | --- | --- | --- | --- |
| H-HHHHLKKILKKLFQFINQLDNQLQDIHHHH-OH [LP40] | > 100 | pH-dependent activity | higher at pH 6 | – | – | – | – | – |
| KKKKLKKILKKLFQFINQLDNQLQDIKKKK-NH2 [LP18] | – | – | – | 1.6 | 1.6 | 2 | – | – |
| KKKKLKKILKKLFQFINQLDNQLQDIKQNK-NH2 [LP1] | – | pH-dependent activity | – | – | – | – | 16 | no apparent deleterious effect |

Reference: paper PMC11345766, “Computational Design of Pore-Forming Peptides with Potent Antimicrobial and Anticancer Activities” (Journal of Medicinal Chemistry, 2024)
